#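 Cells were grown in 96-well plates and exposed to each compound for 48 hours at five concentrations; endpoints were interpolated linearly between bracketing concentrations, or set to the highest concentration if not reached. At the TGI there is no net growth.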
# Key:
# Experiment in all cases: growth of human tumour cells (NCI), 48 h
# 786-0 renal = system: 786-0 renal
# A498 renal = system: A498 renal
# A549 NSCLC = system: A549 NSCLC
# ACHN renal = system: ACHN renal
# BT-549 breast = system: BT-549 breast
# CAKI-1 renal = system: CAKI-1 renal
# CCRF-CEM leukemia = system: CCRF-CEM leukemia
# COLO 205 colon = system: COLO 205 colon
# DU-145 prostate = system: DU-145 prostate
# HCC-2998 colon = system: HCC-2998 colon
# HCT-116 colon = system: HCT-116 colon
# HCT-15 colon = system: HCT-15 colon
# HOP-62 NSCLC = system: HOP-62 NSCLC
# HOP-92 NSCLC = system: HOP-92 NSCLC
# HS 578T breast = system: HS 578T breast
# HT29 colon = system: HT29 colon
# IGROV1 ovarian = system: IGROV1 ovarian
# K-562 leukemia = system: K-562 leukemia
# KM12 colon = system: KM12 colon
# LOX IMVI melanoma = system: LOX IMVI melanoma
# M14 melanoma = system: M14 melanoma
# MALME-3M melanoma = system: MALME-3M melanoma
# MCF7 breast = system: MCF7 breast
# MDA-MB-231 breast = system: MDA-MB-231 breast
# MDA-MB-435 = system: MDA-MB-435
# MDA-N = system: MDA-N
# MOLT-4 leukemia = system: MOLT-4 leukemia
# NCI-H23 lung = system: NCI-H23 lung
# NCI-H460 lung = system: NCI-H460 lung
# NCI/ADR-RES ovarian = system: NCI/ADR-RES ovarian
# OVCAR-3 ovarian = system: OVCAR-3 ovarian
# OVCAR-4 ovarian = system: OVCAR-4 ovarian
# OVCAR-5 ovarian = system: OVCAR-5 ovarian
# PC-3 prostate = system: PC-3 prostate
# RPMI-8226 leukemia = system: RPMI-8226 leukemia
# RXF 393 renal = system: RXF 393 renal
# SF-268 CNS = system: SF-268 CNS
# SF-295 CNS = system: SF-295 CNS
# SF-539 CNS = system: SF-539 CNS
# SK-MEL-2 melanoma = system: SK-MEL-2 melanoma
# SK-MEL-28 melanoma = system: SK-MEL-28 melanoma
# SK-MEL-5 melanoma = system: SK-MEL-5 melanoma
# SK-OV-3 ovarian = system: SK-OV-3 ovarian
# SN12C renal = system: SN12C renal
# SNB-19 CNS = system: SNB-19 CNS
# SNB-75 CNS = system: SNB-75 CNS
# SR leukemia = system: SR leukemia
# SW-620 colon = system: SW-620 colon
# T-47D breast = system: T-47D breast
# TK-10 renal = system: TK-10 renal
# U251 CNS = system: U251 CNS
# UACC-257 melanoma = system: UACC-257 melanoma
# UACC-62 melanoma = system: UACC-62 melanoma
# UO-31 renal = system: UO-31 renal
# EKVX NSCLC = system: EKVX NSCLC
# NCI-H226 lung = system: NCI-H226 lung
# NCI-H522 lung = system: NCI-H522 lung
# OVCAR-8 ovarian = system: OVCAR-8 ovarian
smiles,measurement,setting,value
CCCCCCCC1(N=[N+]=[N-])C(=O)Nc2ccccc2C1=O (stereo not given),TGI,786-0 renal,32 µM
same,TGI,A498 renal,14 µM
same,TGI,A549 NSCLC,28 µM
same,TGI,ACHN renal,28.6 µM
same,TGI,BT-549 breast,30.4 µM
same,TGI,CAKI-1 renal,27.8 µM
same,TGI,CCRF-CEM leukemia,95.4 µM
same,TGI,COLO 205 colon,36.3 µM
same,TGI,DU-145 prostate,31.8 µM
same,TGI,HCC-2998 colon,39.9 µM
same,TGI,HCT-116 colon,32.6 µM
same,TGI,HCT-15 colon,47.3 µM
same,TGI,HOP-62 NSCLC,32 µM
same,TGI,HOP-92 NSCLC,27.2 µM
same,TGI,HS 578T breast,42 µM
same,TGI,HT29 colon,56.8 µM
same,TGI,IGROV1 ovarian,25.6 µM
same,TGI,K-562 leukemia,61.3 µM
same,TGI,KM12 colon,57.7 µM
same,TGI,LOX IMVI melanoma,26.9 µM
same,TGI,M14 melanoma,33.2 µM
same,TGI,MALME-3M melanoma,33.4 µM
same,TGI,MCF7 breast,34.6 µM
same,TGI,MDA-MB-231 breast,41.3 µM
same,TGI,MDA-MB-435,34.2 µM
same,TGI,MDA-N,37.8 µM
same,TGI,MOLT-4 leukemia,35.2 µM
same,TGI,NCI-H23 lung,40.5 µM
same,TGI,NCI-H460 lung,53.6 µM
same,TGI,NCI/ADR-RES ovarian,48.5 µM
same,TGI,OVCAR-3 ovarian,29.6 µM
same,TGI,OVCAR-4 ovarian,29.8 µM
same,TGI,OVCAR-5 ovarian,34 µM
same,TGI,PC-3 prostate,24.1 µM
same,TGI,RPMI-8226 leukemia,> 100 µM
same,TGI,RXF 393 renal,25.1 µM
same,TGI,SF-268 CNS,33.3 µM
same,TGI,SF-295 CNS,36.2 µM
same,TGI,SF-539 CNS,29.6 µM
same,TGI,SK-MEL-2 melanoma,32.7 µM
same,TGI,SK-MEL-28 melanoma,30.7 µM
same,TGI,SK-MEL-5 melanoma,28.4 µM
same,TGI,SK-OV-3 ovarian,30.4 µM
same,TGI,SN12C renal,34.4 µM
same,TGI,SNB-19 CNS,32.4 µM
same,TGI,SNB-75 CNS,27.1 µM
same,TGI,SR leukemia,90 µM
same,TGI,SW-620 colon,26.4 µM
same,TGI,T-47D breast,35 µM
same,TGI,TK-10 renal,31 µM
same,TGI,U251 CNS,28.8 µM
same,TGI,UACC-257 melanoma,41.2 µM
same,TGI,UACC-62 melanoma,23.8 µM
same,TGI,UO-31 renal,25.3 µM
Cc1ccc(/C(C#N)=C/c2cccc([N+](=O)[O-])c2)cc1,TGI,786-0 renal,> 100 µM
same,TGI,A498 renal,> 100 µM
same,TGI,A549 NSCLC,> 100 µM
same,TGI,ACHN renal,> 100 µM
same,TGI,BT-549 breast,> 100 µM
same,TGI,CAKI-1 renal,> 100 µM
same,TGI,COLO 205 colon,> 100 µM
same,TGI,DU-145 prostate,> 100 µM
same,TGI,EKVX NSCLC,> 100 µM
same,TGI,HCC-2998 colon,> 100 µM
same,TGI,HCT-116 colon,> 100 µM
same,TGI,HCT-15 colon,> 100 µM
same,TGI,HOP-62 NSCLC,> 100 µM
same,TGI,HOP-92 NSCLC,> 100 µM
same,TGI,HS 578T breast,65 µM
same,TGI,HT29 colon,> 100 µM
same,TGI,IGROV1 ovarian,> 100 µM
same,TGI,K-562 leukemia,> 100 µM
same,TGI,KM12 colon,> 100 µM
same,TGI,LOX IMVI melanoma,> 100 µM
same,TGI,M14 melanoma,> 100 µM
same,TGI,MALME-3M melanoma,> 100 µM
same,TGI,MCF7 breast,> 100 µM
same,TGI,MDA-MB-231 breast,52.8 µM
same,TGI,MDA-MB-435,> 100 µM
same,TGI,MDA-N,> 100 µM
same,TGI,NCI-H226 lung,> 100 µM
same,TGI,NCI-H23 lung,> 100 µM
same,TGI,NCI-H460 lung,> 100 µM
same,TGI,NCI-H522 lung,> 100 µM
same,TGI,NCI/ADR-RES ovarian,> 100 µM
same,TGI,OVCAR-3 ovarian,> 100 µM
same,TGI,OVCAR-4 ovarian,> 100 µM
same,TGI,OVCAR-5 ovarian,> 100 µM
same,TGI,OVCAR-8 ovarian,> 100 µM
same,TGI,PC-3 prostate,> 100 µM
same,TGI,RPMI-8226 leukemia,> 100 µM
same,TGI,RXF 393 renal,41 µM
same,TGI,SF-268 CNS,> 100 µM
same,TGI,SF-295 CNS,67.3 µM
same,TGI,SF-539 CNS,> 100 µM
same,TGI,SK-MEL-2 melanoma,> 100 µM
same,TGI,SK-MEL-28 melanoma,> 100 µM
same,TGI,SK-MEL-5 melanoma,> 100 µM
same,TGI,SK-OV-3 ovarian,> 100 µM
same,TGI,SN12C renal,> 100 µM
same,TGI,SNB-19 CNS,> 100 µM
same,TGI,SNB-75 CNS,39.6 µM
same,TGI,SR leukemia,> 100 µM
same,TGI,SW-620 colon,> 100 µM
same,TGI,T-47D breast,> 100 µM
same,TGI,TK-10 renal,> 100 µM
same,TGI,U251 CNS,> 100 µM
same,TGI,UACC-257 melanoma,> 100 µM
same,TGI,UACC-62 melanoma,> 100 µM
same,TGI,UO-31 renal,> 100 µM
